For 14 molecules, inhibition results are on record in patent publication EP4729513A1, “A-KETO ACID AMIDE OR SUBSTITUTED OXALIC ACID AMIDE ESTER COMPOUND AND COMPOSITION THEREOF” (Nanjing Chempion Biotechnology Co., Ltd., priority 2023, dated 2025).

In the assay the target is T1, human TYR (Homo sapiens, UniProt P14679).
T1 sequence (P14679 19-529): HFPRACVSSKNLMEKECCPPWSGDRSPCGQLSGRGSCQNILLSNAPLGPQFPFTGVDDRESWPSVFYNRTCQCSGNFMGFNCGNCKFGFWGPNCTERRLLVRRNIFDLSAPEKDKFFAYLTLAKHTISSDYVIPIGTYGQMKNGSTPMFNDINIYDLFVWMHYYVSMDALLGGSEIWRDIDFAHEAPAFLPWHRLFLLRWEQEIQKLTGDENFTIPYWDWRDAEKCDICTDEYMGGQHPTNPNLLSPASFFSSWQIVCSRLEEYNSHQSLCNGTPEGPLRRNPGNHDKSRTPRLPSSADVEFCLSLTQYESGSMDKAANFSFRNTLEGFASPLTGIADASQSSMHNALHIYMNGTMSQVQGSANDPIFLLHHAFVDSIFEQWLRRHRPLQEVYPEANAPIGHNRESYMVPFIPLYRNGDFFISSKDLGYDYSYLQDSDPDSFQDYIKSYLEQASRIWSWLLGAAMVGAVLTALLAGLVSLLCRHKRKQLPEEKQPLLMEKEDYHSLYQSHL
The experiment in a line: TYR inhibitory activity by modified MBTH (3-methyl-2-benzothiazolinone hydrazine) method. In kind it is biochemical. To be noted: compound concentration 2 µg/mL; levodopa oxidized by human TYR, MBTH chromogenic reagent, absorbance at 505 nm. The method, then:
A TYR inhibitory activity of a compound was assessed by a 3-methyl-2-benzothiazolinone hydrazine (MBTH) method modified with reference to the existing report (Journal of Biochemical and Biophysical Methods, 1994, 28 (3): 173-183). With MBTH as a chromogenic reagent, an inhibitory activity of a compound against human TYR was determined as follows: Levodopa was oxidized into L-dopaquinone by the human TYR. MBTH was then allowed to undergo a reaction with the L-dopaquinone to produce a colored product. The reaction was terminated, and the specific absorbance of the colored product at 505 nm was measured.
In general, inhibition refers to the change of the read-out against control, counted positive when it falls. With `O=C(Nc1nc(-c2ccc(O)cc2O)cs1)C(=O)C1CCCCC1` [2-cyclohexyl-N-(4-(2,4-dihydroxyphenyl)thiazol-2-yl)-2-oxoacetamide], the inhibition at 2 µg/mL came out at 65%.
With `O=C(Nc1nc(-c2ccc(O)cc2O)cs1)C(=O)C1CC1` [2-cyclopropyl-N-(4-(2,4-dihydroxyphenyl)thiazol-2-yl)-2-oxoacetamide] the figure was 75.3%; with `O=C(Nc1nc(-c2ccc(O)cc2O)cs1)C(=O)OC1CC1` [Cyclopropyl 2-((4-(2,4-dihydroxyphenyl)thiazol-2-yl)amino)-2-oxoacetate], 85.8%.
For the molecule `CCOC(=O)C(=O)Nc1nc(-c2ccc(O)cc2O)cs1` [Ethyl 2-((4-(2,4-dihydroxyphenyl)thiazol-2-yl)amino)-2-oxoacetate], 2 µg/mL produced 89.6% inhibition.
Molecule `COC(=O)C(=O)Nc1nc(-c2ccc(O)cc2O)cs1` [Methyl 2-((4-(2,4-dihydroxyphenyl)thiazol-2-yl)amino)-2-oxoacetate] registered an inhibition at 2 µg/mL of 88.1%.
Next, `O=C(Nc1nc(-c2ccc(O)cc2O)cs1)C(=O)N1CCCC1` [N-(4-(2,4-Dihydroxyphenyl)thiazol-2-yl)-2-oxo-2-(pyrrolidin-1-yl)oxalamide]: 93.5%; `O=C(Nc1nc(-c2ccc(O)cc2O)cs1)C(=O)N1CCOCC1` [N-(4-(2,4-dihydroxyphenyl)thiazol-2-yl)-2-morpholino-2-oxoacetamide]: 86.1%; `CCC(=O)C(=O)Nc1nc(-c2ccc(O)cc2O)cs1` [N-(4-(2,4-dihydroxyphenyl)thiazol-2-yl)-2-oxobutanamide]: 90%.
`CC(=O)C(=O)Nc1nc(-c2ccc(O)cc2O)cs1` [N-(4-(2,4-dihydroxyphenyl)thiazol-2-yl)-2-oxopropanamide] registered an inhibition at 2 µg/mL of 92.6%.
The molecule `O=C(Nc1nc(-c2ccc(O)cc2O)cs1)C(=O)N1CCSCC1` [N-(4-(2,4-dihydroxyphenyl)thiazol-2-yl)-2-thiomorpholin-2-oxoacetamide] came in with an inhibition at 2 µg/mL of 76.5%.
Next, `CC(C)C(=O)C(=O)Nc1nc(-c2ccc(O)cc2O)cs1` [N-(4-(2,4-dihydroxyphenyl)thiazol-2-yl)-3-methyl-2-oxobutanamide]: 78.5%; `CCN(CC)C(=O)C(=O)Nc1nc(-c2ccc(O)cc2O)cs1` [N-(4-(2,4-dihydroxyphenyl)thiazol-2-yl)-N',N'-diethyloxalamide]: 89.2%.
Molecule `CN(C)C(=O)C(=O)Nc1nc(-c2ccc(O)cc2O)cs1` [N-(4-(2,4-dihydroxyphenyl)thiazol-2-yl)-N',N'-dimethyloxalamide] returned an inhibition at 2 µg/mL of 90.7%.
Regarding `CC(C)NC(=O)C(=O)Nc1nc(-c2ccc(O)cc2O)cs1` [N-(4-(2,4-dihydroxyphenyl)thiazol-2-yl)-N'-isopropyloxalamide], testing at 2 µg/mL gave an inhibition of 96.7%.
